Measurements published in ChEMBL document CHEMBL1145246, “Lactams as prostanoid receptor ligands. Part 4: 2-Piperidones as selective EP4 receptor agonists” (Bioorg Med Chem Lett, 2005).

Tests used:
[1] = Binding affinity for prostanoid EP4 receptor
[2] = target: Prostaglandin E2 receptor EP4 subtype (Homo sapiens, UniProt P35408); assay: Effective concentration required for prostanoid EP4 receptor activity was determined; type: functional
[3] = Binding affinity for prostanoid EP2 receptor
[4] = Binding affinity for prostanoid EP3 receptor
[5] = Binding affinity for Prostanoid EP2 receptor

Chain of Prostaglandin E2 receptor EP4 subtype (P35408 whole entry): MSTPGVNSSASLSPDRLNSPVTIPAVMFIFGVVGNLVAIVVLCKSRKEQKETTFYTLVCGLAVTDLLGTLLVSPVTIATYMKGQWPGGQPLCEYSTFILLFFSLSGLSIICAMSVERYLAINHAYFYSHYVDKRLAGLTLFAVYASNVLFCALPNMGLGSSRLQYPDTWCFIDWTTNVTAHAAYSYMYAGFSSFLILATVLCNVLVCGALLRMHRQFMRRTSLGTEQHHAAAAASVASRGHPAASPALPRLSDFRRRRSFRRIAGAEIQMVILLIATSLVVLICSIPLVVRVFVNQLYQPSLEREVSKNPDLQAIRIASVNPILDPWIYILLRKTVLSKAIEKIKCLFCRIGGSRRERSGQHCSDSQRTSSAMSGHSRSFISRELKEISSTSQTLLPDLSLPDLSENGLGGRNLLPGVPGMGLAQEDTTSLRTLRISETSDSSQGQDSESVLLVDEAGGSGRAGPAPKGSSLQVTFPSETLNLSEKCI

Row | Ki [1] | EC50 [2] | Ki [3] | Ki [4] | Ki [5] | SMILES
1 | 8.7 nM | 44 nM | > 10000 nM | – | – | COCc1cccc(C[C@H](O)/C=C/[C@H]2CCCC(=O)N2CCCCCCC(=O)O)c1
2 | 105 nM | 630 nM | > 10000 nM | > 10000 nM | – | O=C(O)CCCSCCN1C(=O)CCC[C@@H]1CC[C@@H](O)c1ccc(C(F)(F)F)o1
3 | – | 21000 nM | – | – | – | Cc1cc(O)ccc1-c1cccc(C(=O)CC[C@H]2CCCC(=O)N2CCCCCCC(=O)O)c1
4 | 21 nM | 190 nM | – | > 10000 nM | > 10000 nM | O=C(O)CCCSCCN1C(=O)CCC[C@@H]1/C=C/[C@@H](O)CCC1CC1
5 | 22 nM | 44 nM | > 10000 nM | > 10000 nM | – | COCc1cccc(C[C@H](O)/C=C/[C@H]2CCCC(=O)N2CCSCCCC(=O)O)c1
6 | 7.4 nM | 280 nM | > 10000 nM | > 10000 nM | – | Cc1cc(C[C@H](O)/C=C/[C@H]2CCCC(=O)N2CCCCCCC(=O)O)ccc1O
7 | 25 nM | 110 nM | > 10000 nM | > 10000 nM | – | Cc1cc(O)ccc1-c1cccc([C@@H](O)CC[C@H]2CCCC(=O)N2CCCCCCC(=O)O)c1
8 | 86 nM | 290 nM | > 10000 nM | – | – | CCCCC(C)(C)C(O)/C=C/[C@H]1CCCC(=O)N1CCSCCCC(=O)O (some centres not stated)
9 | 7.3 nM | 34 nM | 3800 nM | > 10000 nM | – | O=C(O)CCCSCCN1C(=O)CCC[C@@H]1/C=C/[C@@H](O)CCC1CCC1
10 | 130 nM | 1730 nM | > 10000 nM | – | – | CC(C)c1cc(C[C@H](O)/C=C/[C@H]2CCCC(=O)N2CCCCCCC(=O)O)ccc1O
11 | 17 nM | 260 nM | > 10000 nM | > 10000 nM | – | O=C(O)CCCSCCN1C(=O)CCC[C@@H]1/C=C/C(O)C1(c2ccccc2)CC1 (some centres not stated)
12 | 4.8 nM | 6.1 nM | 1600 nM | > 10000 nM | – | Cc1cc(Cl)ccc1-c1cccc([C@H](O)CC[C@H]2CCCC(=O)N2CCSCCCC(=O)O)c1
